Legend:
neonatal pig model of HI = conditions: IV, to prevent hyperglycemia during glucose infusion before HI injury; cited from earlier work
[1] = system: neonatal piglet model of HI; conditions: bolus injection followed by continuous infusion, continued during HI exposure; cited from earlier work
[2] = parameters: species or system Sprague-Dawley rats; conditions: rat, in vivo
Experimental: Another set of animals were prepared for ELISA study. […] Total proteins were extracted using protein lysis buffer (Invitrogen).
Ex vivo whole brain and spinal cord imaging using live imaging devices (IVIS Spectrum imaging system) was performed to provide an accurate picture of the overall bio-distribution of fluorescent labeling insulin. […] To accurately assess bio-distribution of intranasal insulin, all tissues of interest were analyzed by ELISA.

Substance: regular porcine insulin: IV regular porcine insulin used by LeBlanc et al. in a neonatal pig model of HI
- Outcome of piglets in the insulin group (neonatal pig model of HI): fared slightly better

Substance: regular insulin: regular insulin bolus and infusion to induce moderate hypoglycemia in a neonatal piglet HI model
- Brain injury with insulin-induced hypoglycemia [1]: not able to ameliorate brain injury

Substance: Alexa 546-labeled insulin: fluorescent Alexa 546-labeled insulin (Nanocs Inc) used to study distribution in brain after intranasal application
- Delivery to the central nervous system (fluorescence imaging) [2]: delivered to the central nervous system at 15 minutes

— patent US11931403B2, “Compositions, systems, and methods for treating or reducing hypoxia-ischemia induced brain damage and neurobehavioral dysfunction in neonates” (UNIVERSITY OF MISSISSIPPI MEDICAL CENTER, priority 2019, dated 2024)
